ChEMBL document CHEMBL1909046, “DrugMatrix in vitro pharmacology data”

Experiments:
Estrogen receptor beta = Estrogen receptor beta (Homo sapiens, UniProt Q92731); details: sf9; further: in other assays of this panel Not Active means under 50% inhibition at 10 µM
D(4) dopamine receptor = target: T1, D(4) dopamine receptor (Homo sapiens, UniProt P21917); test: DRUGMATRIX: Dopamine D4.2 radioligand binding (ligand: [3H] Spiperone); format: cell membranes, CHO-K1, Membrane; details: cho-k1; Not Active = under 50% inhibition at 10 µM
T1 sequence (P21917 whole entry): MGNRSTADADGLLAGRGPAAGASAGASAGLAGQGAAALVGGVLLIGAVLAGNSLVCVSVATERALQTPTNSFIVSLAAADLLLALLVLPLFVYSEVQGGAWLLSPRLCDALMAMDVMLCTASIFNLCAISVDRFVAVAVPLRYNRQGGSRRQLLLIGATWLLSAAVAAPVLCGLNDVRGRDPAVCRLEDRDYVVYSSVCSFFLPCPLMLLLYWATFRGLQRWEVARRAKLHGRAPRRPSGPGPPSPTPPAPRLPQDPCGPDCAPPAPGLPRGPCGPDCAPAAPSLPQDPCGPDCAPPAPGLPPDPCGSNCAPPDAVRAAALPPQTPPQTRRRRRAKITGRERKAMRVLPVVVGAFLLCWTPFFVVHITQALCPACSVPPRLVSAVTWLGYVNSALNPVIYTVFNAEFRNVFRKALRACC

[1] = target: Sodium-dependent noradrenaline transporter (Homo sapiens, UniProt P23975); test: DRUGMATRIX: Norepinephrine Transporter radioligand binding (ligand: [125I] RTI-55); format: cell membranes, MDCK, Membrane; details: mdck; Not Active = under 50% inhibition at 10 µM
[2] = DRUGMATRIX: Leukotriene, BLT (LTB4) radioligand binding (ligand: [3H]LTB4); format: cell membranes, Membrane; details: u-937; Not Active = under 50% inhibition at 10 µM
[3] = DRUGMATRIX: Glutamate, AMPA radioligand binding (ligand: [3H] AMPA); format: cell membranes, Rattus norvegicus, Wistar, Cerebral cortex, Membrane; details: Not Active = under 50% inhibition at 10 µM
[4] = target: C-C chemokine receptor type 5 (Homo sapiens, UniProt P51681); format: cell membranes, Membrane; details: hek293; further: in other assays of this panel Not Active means under 50% inhibition at 10 µM
[5] = DRUGMATRIX: GABAA, Flunitrazepam, Central radioligand binding (ligand: [3H] Flunitrazepam); format: cell membranes, Rattus norvegicus, Wistar, Brain, Membrane; details: Not Active = under 50% inhibition at 10 µM

Sequence of C-C chemokine receptor type 5 (P51681 whole entry): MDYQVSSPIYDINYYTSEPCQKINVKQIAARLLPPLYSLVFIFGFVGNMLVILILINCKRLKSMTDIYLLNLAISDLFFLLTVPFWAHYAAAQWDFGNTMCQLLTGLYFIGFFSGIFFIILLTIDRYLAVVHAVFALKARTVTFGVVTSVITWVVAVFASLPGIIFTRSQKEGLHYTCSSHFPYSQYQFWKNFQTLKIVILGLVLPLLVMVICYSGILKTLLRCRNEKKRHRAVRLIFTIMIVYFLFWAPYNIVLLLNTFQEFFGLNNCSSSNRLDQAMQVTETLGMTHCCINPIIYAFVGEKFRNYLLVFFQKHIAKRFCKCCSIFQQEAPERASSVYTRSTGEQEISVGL
Sequence of Sodium-dependent noradrenaline transporter (P23975 whole entry): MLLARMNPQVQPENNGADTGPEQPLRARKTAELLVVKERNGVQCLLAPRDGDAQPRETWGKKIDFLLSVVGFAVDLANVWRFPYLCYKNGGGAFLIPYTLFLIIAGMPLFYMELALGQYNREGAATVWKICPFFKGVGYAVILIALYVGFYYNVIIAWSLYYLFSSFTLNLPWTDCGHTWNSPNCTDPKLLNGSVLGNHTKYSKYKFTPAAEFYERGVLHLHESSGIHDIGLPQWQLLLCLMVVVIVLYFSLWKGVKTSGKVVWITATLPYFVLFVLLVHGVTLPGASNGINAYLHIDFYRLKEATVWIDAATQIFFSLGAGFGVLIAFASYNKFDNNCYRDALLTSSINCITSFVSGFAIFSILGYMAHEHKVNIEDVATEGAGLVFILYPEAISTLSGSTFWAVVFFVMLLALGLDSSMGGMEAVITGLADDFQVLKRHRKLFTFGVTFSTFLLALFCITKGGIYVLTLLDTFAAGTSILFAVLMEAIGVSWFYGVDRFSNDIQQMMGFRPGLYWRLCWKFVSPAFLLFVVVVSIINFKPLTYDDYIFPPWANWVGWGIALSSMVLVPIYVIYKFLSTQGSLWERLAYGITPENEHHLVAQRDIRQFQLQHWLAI
Sequence of Estrogen receptor beta (Q92731 whole entry): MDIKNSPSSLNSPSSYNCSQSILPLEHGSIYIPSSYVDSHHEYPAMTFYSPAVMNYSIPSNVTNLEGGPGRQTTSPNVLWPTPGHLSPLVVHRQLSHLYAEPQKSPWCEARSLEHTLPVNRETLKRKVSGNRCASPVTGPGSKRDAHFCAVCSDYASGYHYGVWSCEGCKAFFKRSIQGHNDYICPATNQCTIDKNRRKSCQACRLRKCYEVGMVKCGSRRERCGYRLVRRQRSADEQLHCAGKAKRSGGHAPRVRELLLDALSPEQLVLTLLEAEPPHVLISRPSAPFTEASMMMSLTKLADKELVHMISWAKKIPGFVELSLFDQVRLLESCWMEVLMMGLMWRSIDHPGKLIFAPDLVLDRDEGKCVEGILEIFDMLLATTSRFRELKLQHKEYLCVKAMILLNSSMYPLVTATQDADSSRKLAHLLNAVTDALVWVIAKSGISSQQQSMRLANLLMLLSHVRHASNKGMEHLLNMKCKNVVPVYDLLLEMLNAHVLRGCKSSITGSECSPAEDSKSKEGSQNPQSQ

Cc1cccc(Nc2cc(Cl)nc(SCC(=O)O)n2)c1C [PIRINIXIC ACID]
Not Active: IC50 (Estrogen receptor beta) | IC50 (D(4) dopamine receptor) | IC50 [1] | IC50 [2] | Ki [2] | IC50 [3] | Ki [3] | IC50 [4] | IC50 [5] | Ki [5]

CC[C@H](C)C(=O)O[C@H]1C[C@H](O)C=C2C=C[C@H](C)[C@H](CC[C@@H](O)C[C@@H](O)CC(=O)O)[C@H]21 [PRAVASTATIN]
Not Active: IC50 (Estrogen receptor beta) | IC50 (D(4) dopamine receptor) | IC50 [1] | IC50 [2] | Ki [2] | IC50 [3] | Ki [3] | IC50 [4] | IC50 [5] | Ki [5]

CC(C)(Sc1cc(C(C)(C)C)c(O)c(C(C)(C)C)c1)Sc1cc(C(C)(C)C)c(O)c(C(C)(C)C)c1 [PROBUCOL]
Not Active: IC50 (Estrogen receptor beta) | IC50 (D(4) dopamine receptor) | IC50 [1] | IC50 [2] | Ki [2] | IC50 [3] | Ki [3] | IC50 [4] | IC50 [5] | Ki [5]

COBALT(II) ACETYLACETONATE
Not Active: IC50 (Estrogen receptor beta) | Ki (Estrogen receptor beta) | IC50 (D(4) dopamine receptor) | Ki (D(4) dopamine receptor) | IC50 [1] | Ki [1] | IC50 [2] | Ki [2] | IC50 [3] | Ki [3] | IC50 [4] | Ki [4] | IC50 [5] | Ki [5]

INSULIN HUMAN
Not Active: IC50 (Estrogen receptor beta) | Ki (Estrogen receptor beta) | IC50 (D(4) dopamine receptor) | Ki (D(4) dopamine receptor) | IC50 [1] | Ki [1] | IC50 [2] | Ki [2] | IC50 [3] | Ki [3] | IC50 [4] | Ki [4] | IC50 [5] | Ki [5]

POLYVINYL ALCOHOL
Not Active: IC50 (Estrogen receptor beta) | Ki (Estrogen receptor beta) | IC50 (D(4) dopamine receptor) | Ki (D(4) dopamine receptor) | IC50 [1] | Ki [1] | IC50 [2] | Ki [2] | IC50 [3] | Ki [3] | IC50 [4] | Ki [4] | IC50 [5] | Ki [5]
